Results taken from patent publication US20230240290A1, “USE OF (Z)-3-HEXENYL ESTERS AND METHOD FOR PROTECTING PLANTS AGAINST PESTS” (UNIVERSITAT POLITÈCNICA DE VALÈNCIA, priority 2020, published 2023).

How the values were obtained:
Nesidiocoris tenuis = details: in vivo
Experimental: To know the behavior of the dispensers loaded with (Z)-3-hexenyl propionate under real cultivation conditions, four commercial greenhouses for tomato cv Raf located in Xilxes (Castellón province), with a history of problems with T. absoluta contamination at the end of winter, were selected. An experimental design of randomized blocks was carried out where each greenhouse was considered a block with two treatments per block and 4 repetitions per treatment. […]
Twenty plants randomly chosen by repetition were sampled weekly for 11 weeks, beginning 30 Jan. […] First, the number of leaflets infested by T. absoluta per plant was counted. Then the number of N. tenuis (adults and nymphs) throughout the apical third of each plant (leaves, flowers and shoots) was counted. Following the methodology described above, 6 samples were taken from the apical part of each plant per repetition, and these samples were immediately introduced into liquid nitrogen to quantify the expression of the PR1 and PIN2 genes (described in Example 1 and Example 2). The expression of these genes was quantified one day before, 4, and 8 weeks after hanging the dispensers in the greenhouses.

[1] = system: PAL (salicylic acid pathway); experiment: Transcriptional response of PAL in Carrizo citrange plants exposed to the volatile; format: in vivo; details: intact Carrizo citrange plants exposed 24 h; n=6
Experimental: Two weeks after seed germination, the seedlings were individually transplanted into pots (8×8×8 cm). The plants were kept in a greenhouse with a plastic cover at approximate climatic conditions of 25±5° C., a relative humidity of 65%±5%, and a natural light photoperiod, about 14:10 h (light:dark). Carrizo citrange plants that had not received any pesticide treatment at 8 weeks of age (approximately 20 cm tall) were used. The volatile (Z)-3-hexenyl propanoate was obtained from Sigma-Aldrich (St. Louis, Mo., USA). The volatile was exposed by using a 2×2 cm piece of filter paper on which 10 μl of a solution containing the corresponding volatile at a concentration of 1:10,000 [(Z)-3-hexenyl propanoate:methanol] was impregnated as an emitting source of the corresponding volatile (Pérez-Hedo, M. et al. Biocontrol, 63: 203-213 (2018)). […]
The methodology followed for the extraction and quantification of gene expression was described by Pérez-Hedo et al. Journal of Pest Science 3: 543-554 (2015). The primers used were forward primer: 5′-[…]-3′ (SEQ ID NO: 11) and reverse primer: 5′-[…]-3′ (SEQ ID NO: 12) for the quantification of LOX2, forward primer: 5′-[…]-3′ (SEQ ID NO: 13) and reverse primer: 5′-[…]-3′ (SEQ ID NO: 14) for PAL and forward primer: 5′-[…]-3′ (SEQ ID NO: 15) and reverse primer: 5′-[…]-3′ (SEQ ID NO: 16) for the NPR5 gene. […]

## CC/C=C\CCOC(=O)CC [(Z)-3-hexenyl propanoate]
Nesidiocoris tenuis
  Population of the plant bug N. tenuis, treatment vs control: remained the same
[1]
  Transcriptional response of PAL compared to control: significantly overexpressed
